Data: ChEMBL document CHEMBL1250526, “Delphinidin, a dietary anthocyanidin in berry fruits, inhibits human glyoxalase I” (Bioorg Med Chem, 2010)
Activity calls are given as the source filed them. The rule behind the calls is not given here.

How the values were obtained:
[1] = system: HL-60; experiment: Antiproliferative activity against human HL60 cells at up to 100 uM after 48 hrs by MTS assay; assay type: functional, cell-based
[2] = biological target: Lactoylglutathione lyase (Homo sapiens, UniProt Q04760); experiment: Inhibition of human recombinant glyoxalase 1 assessed as S-D-lactoylglutathione after 15 mins by spectrophotometric analysis
Sequence of Lactoylglutathione lyase (Q04760 whole entry, the tested form may be a part): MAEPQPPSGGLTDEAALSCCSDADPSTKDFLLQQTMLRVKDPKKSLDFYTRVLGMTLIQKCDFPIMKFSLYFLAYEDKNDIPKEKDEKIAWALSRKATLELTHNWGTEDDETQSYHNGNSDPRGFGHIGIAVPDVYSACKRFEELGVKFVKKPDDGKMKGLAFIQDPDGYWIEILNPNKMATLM

[3] = system: HL-60; experiment: Induction of apoptosis in human HL60 cells assessed as nucleosomal DNA fragmentation at up to 100 uM using ethidium bromide staining by agarose gel electrophoresis; assay type: functional, cell-based; conditions: TDE = time-dependent effect
[4] = system: HL-60; experiment: Antiproliferative activity against human HL60 cells after 24 hrs by MTS assay; assay type: functional, cell-based; conditions: HL-60, 24 h
[5] = system: HL-60; experiment: Antiproliferative activity against human HL60 cells at up to 100 uM by MTS assay; assay type: functional, cell-based; conditions: TDE = time-dependent effect
[6] = system: HL-60; experiment: Induction of apoptosis in human HL60 cells assessed as nucleosomal DNA fragmentation after 48 hrs using ethidium bromide staining by agarose gel electrophoresis; assay type: functional, cell-based
[7] = system: HL-60; experiment: Antiproliferative activity against human HL60 cells after 48 hrs by MTS assay; assay type: functional, cell-based

SMILES	Activity [1]	IC50 [2]	Activity [3]	IC50 [4]	Activity [5]	Activity [6]	Activity [7]	IC50 ([7]; HL-60, 48 h)
Oc1cc(O)c2cc(O)c(-c3ccc(O)c(O)c3)[o+]c2c1 [CYANIDIN CHLORIDE]	Active	11.7 µM	–	–	–	–	–	–
Oc1cc(O)c2cc(O)c(-c3cc(O)c(O)c(O)c3)[o+]c2c1 [DELPHINIDIN CHLORIDE]	–	1.9 µM	tde	80 µM	tde	Dose-dependent effect	Dose-dependent effect	40 µM
Oc1ccc(-c2[o+]c3cc(O)cc(O)c3cc2O)cc1 [PELARGONIDIN CHLORIDE]	Active	16.4 µM	–	–	–	–	–	–
